Measurements: ChEMBL document CHEMBL2163214, “Design, synthesis, calorimetry, and crystallographic analysis of 2-alkylaminoethyl-1,1-bisphosphonates as inhibitors of Trypanosoma cruzi farnesyl diphosphate synthase” (J Med Chem, 2012)

Experiment: Binding affinity to Trypanosoma cruzi farnesyl diphosphate synthase at 250 uM at 28 degC by isothermal titration calorimetry

Kd	SMILES
1030 nM	CCCCCNCC(P(=O)(O)O)P(=O)(O)O
400 nM	CCCCCCNCC(P(=O)(O)O)P(=O)(O)O
58.8 nM	CCCCCCCNCC(P(=O)(O)O)P(=O)(O)O

SMILES	Kd
CCCNCC(P(=O)(O)O)P(=O)(O)O	25 nM
